pEC50: −log10 of the molar value.
Molecular target: T1, SIRT1 (Homo sapiens, UniProt Q96EB6)
T1 sequence (Q96EB6 1-747): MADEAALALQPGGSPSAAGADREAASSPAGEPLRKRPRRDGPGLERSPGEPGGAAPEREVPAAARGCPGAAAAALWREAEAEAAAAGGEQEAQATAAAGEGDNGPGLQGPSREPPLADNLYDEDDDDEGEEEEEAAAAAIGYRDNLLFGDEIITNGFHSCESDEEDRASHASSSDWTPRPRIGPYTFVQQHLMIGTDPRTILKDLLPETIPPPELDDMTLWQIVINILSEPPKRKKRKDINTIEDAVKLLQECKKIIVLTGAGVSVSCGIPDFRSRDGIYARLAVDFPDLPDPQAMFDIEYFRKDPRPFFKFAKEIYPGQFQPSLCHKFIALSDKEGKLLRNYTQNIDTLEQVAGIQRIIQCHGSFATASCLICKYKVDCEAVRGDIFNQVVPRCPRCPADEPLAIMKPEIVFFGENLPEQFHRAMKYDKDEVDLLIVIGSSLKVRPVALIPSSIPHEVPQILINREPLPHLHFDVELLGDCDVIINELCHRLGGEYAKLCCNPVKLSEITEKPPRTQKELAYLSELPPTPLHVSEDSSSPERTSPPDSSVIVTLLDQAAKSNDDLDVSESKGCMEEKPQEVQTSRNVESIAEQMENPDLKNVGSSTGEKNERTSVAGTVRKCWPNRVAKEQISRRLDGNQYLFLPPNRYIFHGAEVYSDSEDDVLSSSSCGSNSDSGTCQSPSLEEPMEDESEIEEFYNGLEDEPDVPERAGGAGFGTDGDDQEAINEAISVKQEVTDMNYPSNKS
Experiment: SIRT1 mass spectrometry assay (screening for activation)
Assay type: biochemical
Details: for FOLD ACTIVATION MS: activation of SIRT1, mass spectrometry; for pEC50: activation of SIRT1, 0.5 μM peptide substrate (SEQ ID NO: 34), 120 μM NAD+, 10 nM SIRT1, 25 min, read-out: ED50 MS ASSAY

c1cc(Nc2nc3ccccc3s2)nc(-c2nc3ncccc3o2)c1 [compound 104]
FOLD ACTIVATION MS: B (Fold Activation<250%)
pEC50: > 4.30

COc1cc(C(=O)Nc2ccccc2-c2cn3cc(CN4CCNCC4)sc3n2)cc(OC)c1OC [compound 271]
FOLD ACTIVATION MS: A (Fold activation>250%)
pEC50: > 4.30

CN(C)c1cccc(C(=O)Nc2cccc(-c3nc4nc(CN5CCNCC5)ccc4o3)c2)c1 [compound 166]
FOLD ACTIVATION MS: B (Fold Activation<250%)

COc1cc(C(=O)Nc2ccc(-c3nc4ccccc4[nH]3)cc2)cc(OC)c1OC [compound 263]
FOLD ACTIVATION MS: B (Fold Activation<250%)

COc1ccc(C(=O)Nc2cccc(-c3csc(-c4ccccc4)n3)c2)cc1OC [compound 84]
FOLD ACTIVATION MS: B (Fold Activation<250%)

COc1ccc(C(=O)Nc2ccccc2-c2cn3ccsc3n2)cc1OC [compound 203]
FOLD ACTIVATION MS: B (Fold Activation<250%)
pEC50: > 4.30

c1cc(Nc2nc3ccccc3s2)cc(-c2nc3ncccc3o2)c1 [compound 95]
FOLD ACTIVATION MS: B (Fold Activation<250%)
pEC50: > 4.30

CN(C)CCNC(=O)c1cc(NC(=O)c2cccc(N(C)C)c2)cc(-c2nc3ncccc3o2)c1 [compound 154]
FOLD ACTIVATION MS: A (Fold activation>250%)

COc1cc(C(=O)Nc2cc(CN(C)C)cc(-c3nc4ccncc4s3)c2)cc(OC)c1OC [compound 174]
FOLD ACTIVATION MS: A (Fold activation>250%)

COC(=O)c1ccc(-n2cncn2)c(NC(=O)c2ccc(OC)c(OC)c2)c1 [compound 258]
FOLD ACTIVATION MS: B (Fold Activation<250%)

COc1cc(C(=O)Nc2ccccc2-c2cn3cc(CN(C)C)sc3n2)cc(OC)c1OC [compound 179]
FOLD ACTIVATION MS: A (Fold activation>250%)
pEC50: > 4.30

COc1cc(C(=O)Nc2ccccc2-c2cn3c(CN4CCNCC4)csc3n2)cc(OC)c1OC [compound 208]
FOLD ACTIVATION MS: A (Fold activation>250%)

CN(C)c1cccc(C(=O)Nc2cccc(-c3nc4ncccc4[nH]3)c2)c1 [compound 183]
FOLD ACTIVATION MS: A (Fold activation>250%)

COc1ccc(C(=O)Nc2ccccc2-c2nc3ncccc3o2)cc1OC [compound 96]
FOLD ACTIVATION MS: B (Fold Activation<250%)
pEC50: > 4.30

COc1ccc(C(=O)Nc2ccccc2-c2cn3ccccc3n2)cc1OC [compound 266]
FOLD ACTIVATION MS: A (Fold activation>250%)
pEC50: > 4.30

COc1cc(C(=O)Nc2ccccc2-c2cc3ccccc3[nH]2)cc(OC)c1OC [compound 255]
FOLD ACTIVATION MS: B (Fold Activation<250%)
pEC50: > 4.30

COc1ccc(C(=O)Nc2cccc(-c3nc4ccccc4[nH]3)n2)cc1OC [compound 260]
FOLD ACTIVATION MS: A (Fold activation>250%)
pEC50: > 4.30

COc1cccc(C(=O)Nc2cccc(-c3nc4cccnc4s3)c2)c1 [compound 212]
FOLD ACTIVATION MS: B (Fold Activation<250%)

COc1ccc(C(=O)Nc2cccc(-c3cc4cccnc4o3)c2)c(OC)c1 [compound 191]
FOLD ACTIVATION MS: B (Fold Activation<250%)
pEC50: > 4.30

COc1ccc(C(=O)Nc2ccccc2-c2nc3ccccc3[nH]2)cc1OC [compound 142]
FOLD ACTIVATION MS: A (Fold activation>250%)
pEC50: > 4.30

CN(C)c1cccc(C(=O)Nc2cccc(-c3nc4ncccc4s3)c2)c1 [compound 200]
FOLD ACTIVATION MS: B (Fold Activation<250%)
pEC50: > 4.30

COc1cc(C(=O)Nc2cccc(-c3nc4cccnc4s3)c2)cc(OC)c1OC [compound 217]
FOLD ACTIVATION MS: A (Fold activation>250%)
pEC50: > 4.30

COc1ccc(C(=O)Nc2cccc(-c3nc4cccnc4[nH]3)c2)c(OC)c1OC [compound 181]
FOLD ACTIVATION MS: A (Fold activation>250%)
pEC50: > 4.30

COc1ccc(C(=O)Nc2ccc(-c3nc4cccnc4[nH]3)cc2)cc1OC [compound 150]
FOLD ACTIVATION MS: B (Fold Activation<250%)
pEC50: > 4.30

CN(C)c1cccc(C(=O)Nc2cc(CN3CCNCC3)cc(-c3nc4ncccc4o3)c2)c1 [compound 160]
FOLD ACTIVATION MS: A (Fold activation>250%)

COc1cc(OC)cc(C(=O)Nc2ccccc2-c2nc3ccccc3[nH]2)c1 [compound 141]
FOLD ACTIVATION MS: B (Fold Activation<250%)
pEC50: > 4.30

COc1cc(C)ccc1C(=O)Nc1ccc(-c2cc3cccnc3o2)cc1 [compound 187]
FOLD ACTIVATION MS: B (Fold Activation<250%)

O=C(Nc1cccc(-c2nc3ccncc3s2)c1)c1cc(C(F)(F)F)ccc1C(F)(F)F [compound 248]
FOLD ACTIVATION MS: B (Fold Activation<250%)

COc1cc(C(=O)Nc2ccccc2-c2cn3ccccc3n2)cc(OC)c1OC [compound 267]
FOLD ACTIVATION MS: B (Fold Activation<250%)
pEC50: > 4.30

COc1ccc(C(=O)Nc2cccc(-c3nc4cnccc4s3)c2)c(OC)c1 [compound 272]
FOLD ACTIVATION MS: B (Fold Activation<250%)
pEC50: > 4.30

c1cc(Nc2nc3ccccc3o2)nc(-c2nc3ncccc3o2)c1 [compound 105]
FOLD ACTIVATION MS: B (Fold Activation<250%)
pEC50: > 4.30

CC(=O)Nc1ccc(S(=O)(=O)Nc2cccc(-c3nc4ccncc4s3)c2)cc1 [compound 288]
FOLD ACTIVATION MS: B (Fold Activation<250%)

COc1ccc(C(=O)Nc2cccc(-c3nc4cccnc4s3)c2)c(OC)c1 [compound 213]
FOLD ACTIVATION MS: B (Fold Activation<250%)
pEC50: > 4.30

COc1ccc(C(=O)Nc2ccccc2-c2cn3c(CN4CCNCC4)csc3n2)cc1OC [compound 207]
FOLD ACTIVATION MS: A (Fold activation>250%)

Cn1nc(C(C)(C)C)cc1C(=O)Nc1cccc(-c2nc3ccncc3s2)c1 [compound 246]
FOLD ACTIVATION MS: B (Fold Activation<250%)
pEC50: > 4.30

COc1ccc(C(=O)Nc2ccc(-c3cc4cccnc4o3)cc2)c(OC)c1 [compound 190]
FOLD ACTIVATION MS: B (Fold Activation<250%)
pEC50: > 4.30

COc1ccc(C(=O)Nc2cccc(-c3csc(C)n3)c2)cc1OC [compound 80]
FOLD ACTIVATION MS: B (Fold Activation<250%)

COc1cc(C)ccc1C(=O)Nc1cccc(-c2nc3cccnc3[nH]2)c1 [compound 182]
FOLD ACTIVATION MS: A (Fold activation>250%)
pEC50: > 4.30

CN(C)c1cccc(C(=O)Nc2ccc(-c3cc4ccccc4[nH]3)cc2)c1 [compound 264]
FOLD ACTIVATION MS: B (Fold Activation<250%)
pEC50: > 4.30

COc1ccc(S(=O)(=O)Nc2cccc(-c3nc4ccncc4s3)c2)cc1OC [compound 289]
FOLD ACTIVATION MS: B (Fold Activation<250%)

COc1ccc(C(=O)Nc2cccc(-c3nc4ncccc4o3)n2)c(OC)c1 [compound 69]
FOLD ACTIVATION MS: B (Fold Activation<250%)

COc1cccc(C(=O)Nc2cccc(-c3nc4ccccc4[nH]3)n2)c1 [compound 261]
FOLD ACTIVATION MS: A (Fold activation>250%)
pEC50: > 4.30

COc1ccc(C(=O)Nc2cccc(-c3nc4ncccc4s3)c2)cc1OC [compound 201]
FOLD ACTIVATION MS: B (Fold Activation<250%)

O=C(Nc1cccc(-c2nc3ccncc3s2)c1)c1cccnc1Cl [compound 222]
FOLD ACTIVATION MS: B (Fold Activation<250%)

COc1cc(C)ccc1C(=O)Nc1ccc(-c2nc3cccnc3[nH]2)cc1 [compound 149]
FOLD ACTIVATION MS: B (Fold Activation<250%)
pEC50: > 4.30

O=C(Nc1cccc(-c2nc3ccncc3s2)c1)c1ccco1 [compound 221]
FOLD ACTIVATION MS: B (Fold Activation<250%)

COc1ccc(C(=O)Nc2ccccc2-c2cc3ccccc3[nH]2)cc1OC [compound 254]
FOLD ACTIVATION MS: B (Fold Activation<250%)
pEC50: > 4.30

O=C(Nc1cccc(-c2nc3ccncc3s2)c1)c1cccs1 [compound 223]
FOLD ACTIVATION MS: B (Fold Activation<250%)
pEC50: > 4.30

COc1ccc(C(=O)Nc2cccc(-c3csc(C)n3)c2)c(OC)c1 [compound 81]
FOLD ACTIVATION MS: B (Fold Activation<250%)

COc1ccc(C(=O)Nc2cccc(-c3nc4cccnc4[nH]3)c2)cc1OC [compound 185]
FOLD ACTIVATION MS: A (Fold activation>250%)
pEC50: > 4.30
